Test results taken from patent publication US10344287B2, “Recombinant microorganism producing quinolinic acid and method for producing quinolinic acid using same” (priority 2014, dated 2019).

Experiments:
Format in all cases: cell-based, E. coli
[1] = test system: W3110-ΔnadC with pPro-nadB_pCJ1-nadA and pCL1920; assay: Sensitivity to quinolinic acid, control strain; conditions: 13 g/L quinolinic acid in medium
Method: (§1) First, to attenuate growth and development in the production strains, it was confirmed whether the addition of 13 g/L of quinolinic acid, in which KOH was titrated to a 7.0 pH, had influence or not. That is, a single colony of the strain producing quinolinic acid was inoculated in 25 mL of a LB+1% glucose broth (10 g/L of yeast extract, 5 g/L of NaCl, 10 g/L of tryptone, […] of kanamycin, and 10 g/L of glucose) by 1 platinum loop, and then, incubated with 250 rpm at 33° C. for 16 to 24 hours. Then, the OD600, the glucose consumption, and the residual quinolinic acid of the strain were measured.
(§2) To figure out whether the KefA membrane protein influenced the introduction of quinolinic acid, under the same method as Example 2-4(1), the kefA gene-deficient strain and the kefA gene-enhanced strain were subjected to evaluation of sensitivity to quinolinic acid.

[2] = test system: W3110-ΔnadCΔkefA with pPro-nadB_pCJ1-nadA and pCL1920; assay: Sensitivity to quinolinic acid, kefA-deficient strain
Method: as §1, §2

[3] = test system: W3110-ΔnadC with pPro-nadB_pCJ1-nadA; assay: Sensitivity to quinolinic acid of strain producing quinolinic acid (growth in LB+1% glucose broth)
Method: as §1

[4] = test system: MG1655-ΔnadC with pPro-nadB_pCJ1-nadA; assay: as above; conditions: 33° C., 16 to 24 hours
Method: as §1

[5] = test system: W3110-ΔnadC with pPro-nadB_pCJ1-nadA and pCL_PrhtB-kefA; assay: Sensitivity to quinolinic acid, kefA-enhanced strain
Method: as §1
The kefA gene obtained through PCR procedures was recovered through agarose gel elution, and then, was treated with restriction enzymes EcoRV and HindIII. Afterwards, the kefA gene was subjected to ligation into a pCL1920_pRhtB vector treated with restriction enzymes EcoRV and HindIII, leading to the expression of the kefA gene linked to a pRhtB promoter. The vector prepared therefrom was named a pCL_pRhtB-kefA vector.
as §2

[6] = 13 g/L quinolinic acid in medium

O=C(O)c1cccnc1C(=O)O [quinolinic acid, 2,3-pyridine-dicarboxylic acid]
Glucose consumption [1]: 6.2 g/L
OD600 [1]: 5.0
Glucose consumption [2, 6]: 8.0 g/L
OD600 [2, 6]: 8.2
growth and development and glucose consumption speed compared to control strain ([2]; quinolinic acid additionally added to the medium, kefA-deficient strain versus control strain): up to 110%
OD600 ([3]; 13 g/L of quinolinic acid in medium (pH 7.0 with KOH), 33° C., 16 to 24 hours): 4.9
Glucose consumption ([3]; 13 g/L of quinolinic acid in medium, 33° C., 16 to 24 hours): 6.0 g/L
growth and development and glucose-consumption speed, decreased to ([3]; quinolinic acid additionally added to the medium (13 g/L) versus 0 g/L, strains of Table 5): 40%
OD600 ([4]; 13 g/L of quinolinic acid in medium (pH 7.0 with KOH)): 4.5
Glucose consumption ([4]; 13 g/L of quinolinic acid in medium): 6.0 g/L
Glucose consumption [5, 6]: 3.2 g/L
OD600 [5, 6]: 2.1
growth and development and glucose consumption speed compared to control strain ([5]; quinolinic acid additionally added to the medium, kefA-enhanced strain versus control strain): 50%
